One experiment relates to Plasmodium falciparum. Description: Antimalarial activity against Plasmodium falciparum NF54. It counts as functional.
Experiment [1] deals with Mus musculus. Put plainly: Total number of mice protected out of the 5 tested at a dose of 48 mg/kg/day (Observation till day 10 post-infection). It counts as functional.
Experiment [2] concerns Mus musculus. Description: The compound was tested in vivo antimalarial response against multidrug-resistant Plasmodium yoelii in Swiss mice (Mus musculus) at a dose of 48 (mg/kg/day) after 7 days. It is filed as functional.
The subject of experiment [3] is Mus musculus. Put plainly: The compound was tested in vivo antimalarial response against multidrug-resistant Plasmodium yoelii in Swiss mice (Mus musculus) at a dose of 48 (mg/kg/day) after 10 days. It is filed as functional.
For experiment [4], the system named is Mus musculus. Description: (§1) The compound was tested in vivo antimalarial response against multidrug-resistant Plasmodium yoelii in Swiss mice (Mus musculus) at a dose of 48 (mg/kg/day) after 4 day. It counts as functional.
Experiment [5] concerns Mus musculus. Description: Total number of mice protected out of the 5 tested at a dose of 24 mg/kg/day (Observation till day 10 post-infection). It is filed as functional.
For experiment [6], the system named is Mus musculus. Put plainly: Total number of mice protected out of the 5 tested at a dose of 96 mg/kg/day (Observation till day 10 post-infection). It is filed as functional.
Experiment [7] relates to Mus musculus. Put plainly: The compound was tested in vivo antimalarial response against multidrug-resistant Plasmodium yoelii in Swiss mice (Mus musculus) at a dose of 24 (mg/kg/day) after 4 days. It counts as functional.
Experiment [8] relates to Mus musculus. Description: The compound was tested in vivo antimalarial response against multidrug-resistant Plasmodium yoelii in Swiss mice (Mus musculus) at a dose of 24 (mg/kg/day) after 7 days. It counts as functional.
Experiment [9] concerns Mus musculus. Put plainly: The compound was tested in vivo antimalarial response against multidrug-resistant Plasmodium yoelii in Swiss mice (Mus musculus) at a dose of 24 mg/kg/day after 10 days. It counts as functional.
Experiment [10] concerns Mus musculus. Put plainly: The compound was tested in vivo antimalarial response against multidrug-resistant Plasmodium yoelii in Swiss mice (Mus musculus) at a dose of 96 (mg/kg/day) after 10 days. It is filed as functional, organism-based.
In experiment [11] the test system is Mus musculus. Put plainly: The compound was tested in vivo antimalarial response against multidrug-resistant Plasmodium yoelii in Swiss mice (Mus musculus) at a dose of 96 (mg/kg/day) after 4 day. It counts as functional, organism-based.
Experiment [12] relates to Mus musculus. Put plainly: The compound was tested in vivo antimalarial response against multidrug-resistant Plasmodium yoelii in Swiss mice (Mus musculus) at a dose of 96 (mg/kg/day) after 7 days. It counts as functional, organism-based.
For experiment [13], the system named is Mus musculus. Described as §1. It counts as functional, organism-based.

Values after ≈ are worked out from the molar mass of the structure shown.

One may read the MIC as the smallest concentration in the dilution series that meets the test's criterion for growth inhibition. The low end stands for greater potency, the high end for weaker potency. `C=C(CCCO)C1COC2(CCCC2)OO1` (stereo unspecified) showed an MIC against Plasmodium falciparum of 0.25 µg/mL (≈ 1.1 µM).

Turning to `CCN(CC)CCCC(C)Nc1ccnc2cc(Cl)ccc12` (stereo unspecified) [CHLOROQUINE], the “No. of mice protected” value in the experiment with Mus musculus [1] is listed as 3. The Parasitemia was 17.6% in the experiment on Mus musculus [2], 32.74% in the experiment with Mus musculus [3] and 1.53% in the experiment with Mus musculus [4]. In the experiment with Plasmodium falciparum, the MIC turned out to be 0.04 µg/mL (≈ 0.125 µM).

`C=C(C)C(O)CCC(=C)C1COC2(CCCC2)OO1` (stereo unspecified) had an MIC in the experiment with Plasmodium falciparum of 0.125 µg/mL (≈ 0.466 µM).

In turn, `C=C(CCCO)C1COC(C)(C)OO1` (stereo unspecified) showed an MIC in the experiment on Plasmodium falciparum of 1 µg/mL (≈ 4.94 µM).

As to `C=C(CCCO)C1COC2(OO1)C1CC3CC(C1)CC2C3` (stereo unspecified), the MIC against Plasmodium falciparum stood at 0.125 µg/mL (≈ 0.425 µM).

As to `C=C(C)C(O)CCC(=C)C1COC2(OO1)C1CC3CC(C1)CC2C3` (stereo unspecified), the “No. of mice protected” value with Mus musculus [5] is recorded as 2; with Mus musculus [1] it was 4; in the experiment with Mus musculus [6], 5. Further, the Parasitemia in the experiment with Mus musculus [2] is 2.04%; with Mus musculus [7] it was 2.42%; in the experiment on Mus musculus [8] it was 13.38%; in the experiment with Mus musculus [9], 28.4%; in the experiment on Mus musculus [10], “Nil”; in the experiment with Mus musculus [11], “Nil”. In addition, the Parasitemia entry is “Nil” in the experiment on Mus musculus [12], 10.5% with Mus musculus [3] and “Nil” in the experiment with Mus musculus [13]. The same compound displayed an MIC with Plasmodium falciparum of 0.031 µg/mL (≈ 0.0927 µM).

As for `C=C(CCCO)C1COC2(CCCCC2)OO1` (stereo unspecified), it took 1 µg/mL (≈ 4.13 µM) to inhibit growth against Plasmodium falciparum (MIC).

In turn, `C[C@@H]1CC[C@H]2[C@@H](C)C(=O)O[C@@H]3O[C@@]4(C)CC[C@@H]1[C@]32OO4` [ARTEMISININ] showed an MIC with Plasmodium falciparum of 0.031 µg/mL (≈ 0.11 µM).

Compound `C=C(C)C(O)CCC(=C)C1COC(C)(C)OO1` (stereo unspecified) gave an MIC in the experiment with Plasmodium falciparum of 0.5 µg/mL (≈ 2.06 µM).

For `C=C(C)C(O)CCC(=C)C1COC2(CCCCC2)OO1` (stereo unspecified), in the experiment with Plasmodium falciparum, the MIC was 0.125 µg/mL (≈ 0.443 µM).
